Article PMC8844822, “SARM1 is a multi-functional NAD(P)ase with prominent base exchange activity, all regulated bymultiple physiologically relevant NAD metabolites” (iScience, 2022)
Read-outs that look alike come from different tables or passages of the source.

Legend:
hSARM1 full length [1] = target: T1, hSARM1 full length (Homo sapiens, UniProt Q6SZW1); test: NAD(P)ase activity by HPLC (kinetics, substrates, metal ions); assay type: biochemical; conditions: for basal rate: substrate alone […]
T1 construct: Human recombinant SARM1 full length proteins (wild-type and E642A mutant); made in house
T1 sequence (Q6SZW1 28-724): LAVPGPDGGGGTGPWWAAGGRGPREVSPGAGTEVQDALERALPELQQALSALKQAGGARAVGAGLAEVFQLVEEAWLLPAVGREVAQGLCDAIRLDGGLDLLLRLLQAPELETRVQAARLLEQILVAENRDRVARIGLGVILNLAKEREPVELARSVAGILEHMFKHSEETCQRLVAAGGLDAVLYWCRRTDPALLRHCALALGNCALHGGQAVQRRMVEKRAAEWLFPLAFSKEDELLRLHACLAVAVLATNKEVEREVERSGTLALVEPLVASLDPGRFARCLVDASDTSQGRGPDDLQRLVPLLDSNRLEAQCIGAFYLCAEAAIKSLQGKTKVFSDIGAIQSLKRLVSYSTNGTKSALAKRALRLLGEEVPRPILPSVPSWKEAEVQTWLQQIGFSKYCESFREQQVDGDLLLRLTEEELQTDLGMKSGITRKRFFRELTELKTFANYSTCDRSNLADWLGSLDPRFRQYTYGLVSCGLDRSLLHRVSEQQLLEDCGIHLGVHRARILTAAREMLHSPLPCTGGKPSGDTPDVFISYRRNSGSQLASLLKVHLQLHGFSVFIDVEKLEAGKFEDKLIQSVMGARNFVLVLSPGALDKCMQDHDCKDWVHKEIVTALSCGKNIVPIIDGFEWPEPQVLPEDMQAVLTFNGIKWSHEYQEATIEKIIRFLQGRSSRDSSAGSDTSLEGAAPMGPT
Method: (§1) hSARM1 species were routinely assayed by the NAD/NADH-Glo^TM Assay (Promega) while both Aplysia cyclase and CD38 were assayed by fluorometry using ϵNAD ([Orsomando et al., 2000]). […] Other reagents used in addition to, or in place of those above are detailed in text or in figure legends, for example metal ions, free bases, dinucleotide analogues, mononucleotides, and ribosides. Assays were all carried out at 25°C except for temperature studies. Reactions were stopped by HClO4/K2CO3 and analysed by C18-HPLC as reported ([Mori et al., 2014]). Only the acid labile NADH and NADPH were treated with 1 N NaOH and neutralized using 1:1 vol of 1.73 M KH2CO3 while the highly hydrophobic metabolites vacor, VAD, VMN and VR, were analysed by a modified C18-HPLC method ([Buonvicino et al., 2018]). Reaction products were quantified from peak areas (see Figure 2A) based on coelution with standards (except for cyclic products from NAD analogues that were not available and were attributed based on UV-spectra and retention times as predicted). Rates were calculated as follows. Hydrolysis and cyclization were measured from product generation from the respective individual dinucleotide substrate used, e.g., free and cyclic ADP-ribosyl moieties from NAD (Figure 1B). A basal value for hydrolysis/cyclization was taken as sum of these latter two products. In addition to that value, base exchange or transglycosidation was calculated from the expected dinucleotide analog formed in the presence of the corresponding free base, e.g., AcPyrAD from AcPyr and NAD.
(§2) The kinetic parameters were calculated from initial rates obtained from replicates via best-fitting analysis using the following Equation 1 for CD38 and Aplysia cyclase, or Equation 2 for hSARM1 SAM-TIR, or Equation 3 for hSARM1 full length(Equation 1) V =Vmax[S]/Km+[S] […] In that case, the resulting single curves were fit to Equation 3 as above to evaluate any competition between NMN and the substrate used (see Table 1).

hCD38 [2] = target: T2, hCD38 (Homo sapiens, UniProt P28907); test: as above; assay type: biochemical
T2 construct: a soluble fragment Val43-Ile300 with 6x-His tag at C terminus; 6xHis (C); purchased R&D Systems
T2 sequence (P28907 43-300): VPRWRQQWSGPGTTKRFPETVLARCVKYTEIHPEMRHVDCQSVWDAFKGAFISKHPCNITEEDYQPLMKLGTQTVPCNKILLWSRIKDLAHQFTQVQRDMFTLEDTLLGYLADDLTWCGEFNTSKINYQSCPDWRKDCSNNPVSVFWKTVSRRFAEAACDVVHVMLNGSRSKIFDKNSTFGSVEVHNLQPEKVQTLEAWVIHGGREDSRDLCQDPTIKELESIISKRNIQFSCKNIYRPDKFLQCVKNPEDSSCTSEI
Method: as §1, §2

[3] = target: T3, Aplysia californica ADP ribosyl cyclase (Aplysia californica, UniProt P29241)
T3 sequence (P29241 25-282): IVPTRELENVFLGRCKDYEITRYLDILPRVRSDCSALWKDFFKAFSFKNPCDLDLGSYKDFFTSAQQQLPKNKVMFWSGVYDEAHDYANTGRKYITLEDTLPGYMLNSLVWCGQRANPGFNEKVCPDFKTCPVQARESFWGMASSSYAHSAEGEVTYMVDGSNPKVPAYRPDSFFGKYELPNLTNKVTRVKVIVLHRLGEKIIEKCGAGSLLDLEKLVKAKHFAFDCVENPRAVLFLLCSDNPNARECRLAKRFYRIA
Method: as §1, §2

hSARM1 SAM-TIR [4] = target: T4, hSARM1 SAM-TIR (Homo sapiens, UniProt Q6SZW1); assay type: biochemical
T4 construct: made in house
T4 sequence (Q6SZW1 409-724): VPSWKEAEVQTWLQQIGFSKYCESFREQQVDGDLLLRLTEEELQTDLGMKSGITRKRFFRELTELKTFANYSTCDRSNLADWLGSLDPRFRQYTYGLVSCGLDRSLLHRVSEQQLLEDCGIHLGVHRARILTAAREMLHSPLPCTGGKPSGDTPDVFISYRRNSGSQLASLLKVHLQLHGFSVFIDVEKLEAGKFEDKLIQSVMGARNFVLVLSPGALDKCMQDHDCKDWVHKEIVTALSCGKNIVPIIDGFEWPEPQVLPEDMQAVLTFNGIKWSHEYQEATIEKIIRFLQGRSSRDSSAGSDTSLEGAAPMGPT
Method: as §1, with “In addition to that value, base exchange or transglycosidation was calculated from the expected dinucleotide analog formed in the presence of the corresponding free base, e.g., AcPyrAD from AcPyr and NAD.” left out

hSARM1 SAM-TIR [5] = target: T4, hSARM1 SAM-TIR; test: Base exchange reactions at neutral pH (HPLC); assay type: biochemical; conditions: NAD […] alone or + AcPyr 2 mM / Vacor 0.5 mM / Na 2 mM
Method: (§3) Multiple time stops from individual assays as above were analyzed for linearity, then extents of hydrolysis (white bars), cyclization (red bars), or base exchange (black bars) were calculated from each corresponding product as shown in Figure 1B and STAR methods. […] See also Figures S3–S5, and Table S1
(§4) Rates were calculated as follows.

hSARM1 full length [6] = target: T1, hSARM1 full length; test: Base exchange reactions at neutral pH (HPLC); assay type: biochemical; conditions: hSARM1 full length, no trigger; NAD […] alone or + AcPyr 2 mM / Vacor 0.5 mM / Na 2 mM; pH 7.5
Method: as §3, §1

hCD38 [7] = target: T2, hCD38; test: Base exchange reactions at neutral pH (HPLC); assay type: biochemical; conditions: NAD […] alone or + AcPyr 2 mM / Vacor 0.5 mM / Na 2 mM
Method: as §3, §1

[8] = target: T3, Aplysia californica ADP ribosyl cyclase; test: Base exchange reactions at neutral pH (HPLC); assay type: biochemical; design: purchased Merck A8950; conditions: NAD […] alone or + AcPyr 2 mM / Vacor 0.5 mM / Na 2 mM
Method: as §3, §4

For `NC(=O)c1ccc[n+]([C@@H]2O[C@H](COP(=O)([O-])OP(=O)(O)OC[C@H]3O[C@@H](n4cnc5c(N)ncnc54)[C@H](O)[C@@H]3O)[C@@H](O)[C@H]2O)c1` [NAD, nicotinamide adenine dinucleotide], which Ki (hSARM1 full length [1]; SARM1, read-out: Kia) is on record?
Its Ki is about 300 µM.

What about the “cyclization, share of total substrate consumption” value (hSARM1 full length [1]; hSARM1, no free pyridines) of the same molecule?
Its value is about 10%.

What about the “hydrolysis, share of substrate consumption” value (hSARM1 full length [1]; hSARM1, no free pyridines) of the same molecule?
The value was about 90%.

What about the “specific activity, basal NADase (hydrolysis or cyclization combined)” value (“specific activity, basal NADase” for short) (hSARM1 full length [1]; hSARM1, saturating NAD) of the same molecule?
The value was about 0.02 U/mg.

What about the basal rate (hSARM1 full length [1]; hSARM1 full length 14.6 µg/ml, 30 min, 25 °C (Figure S2)) of the same molecule?
Its basal rate is 15.8 mU/mg.

What about the “Kis (catalytic site)” value (hSARM1 full length [1]; hSARM1 full length +NMN 5μM, n=1) of the same molecule?
Its value is over 8000 µM.

What about the Ki (hSARM1 full length [1]; hSARM1 full length +NMN 5μM, n=1, read-out: Kia (allosteric site)) of the same molecule?
Its Ki is 385 µM.

And the “Kis (catalytic site)” value (hSARM1 full length [1]; hSARM1 full length +NMN 10μM, n=1)?
Its value is over 8000 µM.

What about the Ki (hSARM1 full length [1]; hSARM1 full length +NMN 10μM, n=1, read-out: Kia (allosteric site)) of the same molecule?
The Ki was 415 µM.

And the “Kis (catalytic site)” value (hSARM1 full length [1]; hSARM1 full length +NMN 20μM, n=1)?
The value was over 8000 µM.

And the Ki (hSARM1 full length [1]; hSARM1 full length +NMN 20μM, n=1, read-out: Kia (allosteric site))?
Its Ki is 787 µM.

And the “Kis (catalytic site)” value (hSARM1 full length [1]; hSARM1 full length +NMN 50μM, n=1)?
Its value is over 8000 µM.

What about the Ki (hSARM1 full length [1]; hSARM1 full length +NMN 50μM, n=1, read-out: Kia (allosteric site)) of the same molecule?
Its Ki is 1200 µM.

And the basal rate (hSARM1 full length [1]; hSARM1 full length WT 5.4 µg/ml, 6 hours, 25 °C (Figure S3))?
Its basal rate is 26.4 mU/mg.

And the “Kis (inhibition, catalytic site on TIR domain)” value (hSARM1 full length [1]; hSARM1 full length, no NMN)?
The value was over 8000 µM.

And the Ki (hSARM1 full length [1]; hSARM1 full length, no NMN, read-out: Kia (inhibition, allosteric site on ARM domain))?
The Ki was 324 ± 24.6 µM.

And the “NAD concentration at maximum NADase activity” value (hSARM1 full length [1]; hSARM1 full length, activity falls to almost zero at 4 mM)?
Its value is 0.25 mM.

And the “hydrolysis, share of NAD consumption” value (hCD38 [2]; hCD38)?
Its value is over 98%.

And the “specific activity, basal NADase” value (hCD38 [2]; hCD38, saturating NAD)?
The value was about 7 U/mg.

What about the “cyclization, share of NAD consumption” value [3] of the same molecule?
Its value is over 98%.

What about the “specific activity, basal NADase” value ([3]; saturating NAD) of the same molecule?
Its value is about 50 U/mg.

What about the “Kis (inhibition, catalytic site)” value (hSARM1 SAM-TIR [4]) of the same molecule?
The value was over 8000 µM.

And the rate (hSARM1 SAM-TIR [5])?
The rate was 342.4 ±56.3 mU/mg.

And the rate (hSARM1 full length [6])?
The rate was 21.8 ±0.30 mU/mg.

What about the rate (hCD38 [7]) of the same molecule?
Its rate is 7798 ±1624 mU/mg.

What about the rate [8] of the same molecule?
Its rate is 14712 ±399 mU/mg.
